Assay results published in patent US20090246293A1 (priority 2008, published 2009).
Read-outs that look alike come from different tables or passages of the source.

Columns and labels:
[1] = system: Pseudoperonospora cubensis; assay: Drop-band treatment of cucumber leaves, then spray inoculation with zoospores (Examples 1-3); type: in vivo
Method: The following examples were carried out on greenhouse and growth chamber experiments on cucumber plants. The cucumber plants were grown from seed in soil-free medium mix (Metro-Mix 360®) and maintained in a glasshouse with supplementary light sources to provide a 16 hour photoperiod at 24-29° C. until the plants had produced 1-2 true leaves. Plants were then trimmed to 1 true leaf, approximately 8 cm across by removing any additional leaves.
Referring below to Table 1, Dithane M45 and Dithane OS are standard commercial formulations. Isovaleraldehyde loaded onto PergoPak was prepared using the following procedure: a mixture of 1.35 g of PergoPak M (polyurea), 0.15 g of isovaleraldehyde and 8 mL of ether was stirred at room temperature for 10 min. The mixture was then concentrated by rotatory evaporation at room temperature under a slight vacuum to provide a solid that was air dried for an hour at room temperature and then bottled. All treatments were prepared by adding the appropriate amount of each treatment to distilled water to give the desired concentration of active ingredient. Dithane® M45 suspensions were initially prepared via serial dilution. Mancozeb/isovaleraldehyde solutions were prepared by adding a prepared isovaleraldehyde solution to a prepared mancozeb suspension. All solutions were vortexed and sonicated prior to treatment application to ensure that they were homogenous.
A sporangial suspension of Pseudoperonospora cubensis was made by collecting leaves with freshly sporulating lesions and washing them in distilled water, which was made up of equal volumes of chilled (4° C.) and tap distilled water (21° C.). The suspension was then left on the lab bench for 2 hours to allow the release of zoospores from the sporangia. After 2 hours the suspension was filtered through filter paper (“Whatman”, 12.5 cm, grade 113V) to remove any remaining sporangia and mycelial fragments. The zoospore concentration was determined and then adjusted to the desired concentration with distilled water.
For each example described below, an area 5 cm wide by 1 cm deep was initially marked on each cucumber leaf by placing a mark in each corner of the area. This was repeated on four separate plants to give four replicates for each treatment. Ten 15 microlitre drops were then applied to each leaf in two 5 drop bands (1 cm between each drop) and allowed to dry overnight. Subsequently a zoospore suspension of Pseudoperonospora cubensis (30,000 zoospores/mL) was sprayed with a hand-atomiser to the entire leaf until run-off. Plants were placed in a dew room (22° C. and 99% RH) for 24 hours then maintained in a growth room with supplementary light sources to provide a 14 hour photoperiod at 18° C. and 70% RH until disease assessment.
Assessment of the effectiveness of the treatment was done by visual infection within the banded area. The banded area was evaluated on a percentage scale (with 0% representing no infection and 100% representing infection of the entire area) after 5-7 days.

[2] = system: Phytophthora infestans (PHYTIN); type: in vivo; settings: for effect of Formulation I on the effectiveness of fungicides, PHYTIN: Table 20
[3] = system: Pseudoperonospora cubensis (PSPECU); settings: in vivo
[4] = system: Plasmopara viticola (PLASVI); type: in vivo; settings: for Reduction in percent disease: aldehyde derivative 100 ppm with mancozeb
Phytophthora infestans = type: in vivo; settings: for % Disease: potatoes, field, six sprays, rated 8 days after sixth application; for Disease control compared to Dithane alone (in words): combined with Dithane, potato field trial
[5] = system: Pseudoperonospora cubensis (PSPECU); assay: Droplet application on cucumber leaf, growth chamber (Examples 5a-d); type: in vivo
Method: Examples 5a through 5d were conducted in growth chambers on cucumber plants. Cucumbers (Cucumis sativus cv Bush Pickle Hybrid #901261) were grown from seed in 5 cm by 5 cm pots containing MetroMix™ growth medium (Scotts, Marysville, Ohio) and maintained in a glasshouse with supplementary light sources to provide a 14 hour photoperiod at 24-29° C. until the plants were in the 2-3 true leaf stage of growth and the oldest leaf was fully expanded.
For examples 5a through 5d, described below, samples of mancozeb formulated as Dithane DG NT were dissolved in water to form a ½×dilution series. Mancozeb rates were 400, 200, 100 and 50 ppm. Samples of various aldehydes, amino acids, carboxylic acids, amines and alcohols were dissolved in acetone and then mixed with aqueous solutions of mancozeb. Attractant rates in the dilute solutions were 100, 200, 500 or 1000 ppm, depending on the experiment.
Mixtures of attractant or attractant derivative plus mancozeb or mancozeb alone were applied to cucumber as a row of 5 or 7.5 ul droplets using a multi-channel pipetting device. Five droplets spaced 1 cm apart were placed along the mid-rib of the expanded cucumber leaf with the first droplet being positioned at least 1-cm from the leaf apex. Each treatment was replicated three or four times, depending on the experiment. Two to three hours after applying the treatments when droplets had dried, plants were inoculated with a suspension of sporangia of a Pseudoperonospora cubensis (PSPECU) and incubated as described in the methods for sprayed tests. When symptoms were well developed in untreated check plants, the experiment was assessed visually using a template 2 cm wide and 7 cm long with the long axis centered on the mid-rib of the treated leaf.
Reduction in percent disease was calculated by subtracting percent disease on plants receiving a mixture of mancozeb plus the specified test substance from percent disease on plants receiving mancozeb alone. The results for examples 5a-5d are shown below in Tables 7-10; the reduction in percent disease was indicated as follows: […]

[6] = type: in vivo; settings: mancozeb:fluazinam 1:1, mancozeb:dimethomorph 2:1, Formul. I/II at 100 ppm, untreated check 95%
[7] = Dithane 600 g ai/ha plus 300 ppm compound
[8] = substance alone 500 ppm, untreated check 95
[9] = fungicide with Formulation I at 100 ppm
[10] = fungicide with Formulation I at 100 ppm, Table 18
[11] = fungicide with Formulation I at 100 ppm, Table 19

Compound: N#Cc1c(Cl)c(Cl)c(Cl)c(C#N)c1Cl [Chlorothalonil, chlorothalonil]
- Percent infection of Pseudoperonospora cubensis on cucumbers ([1]; chlorothalonil 5 ppm alone, 7 days after application): 24%
- Percent infection of Pseudoperonospora cubensis on cucumbers ([1]; chlorothalonil 20 ppm alone, 7 days after application): 9%
- Percent infection of Pseudoperonospora cubensis on cucumbers ([1]; chlorothalonil 100 ppm alone, 7 days after application): 0%
- Reduction in percent disease, Formul. I ([2]; PHYTIN, fungicide with Formulation I at 100 ppm of attractant derivative, Table 22): x (0-20% reduction in percent disease)
- Reduction in percent disease, Formul. I [3]: x (key: x: 0-20% reduction in percent disease; xx: 21-35% reduction in percent disease; xxx: 36-50% reduction in percent disease; xxxx: >50% reduction in percent disease)
- Reduction in percent disease, Formul. I ([4]; PLASVI, fungicide with Formulation I at 100 ppm of attractant derivative, Table 22): x (0-20% reduction in percent disease)

Compound: CCCC=NNC(=O)Nc1ccccc1 [Compound A]
- % Disease (Phytophthora infestans; 300 ppm compound alone): 98%
- % Disease (Phytophthora infestans; [7]): 20%
- Disease control compared to Dithane alone (in words) (Phytophthora infestans): significantly improve disease control
- Reduction in percent disease [3]: xx (key: x: 0-20% reduction in percent disease; xx: 21-35% reduction in percent disease; xxx: 36-50% reduction in percent disease; xxxx: >50% reduction in percent disease)
- Reduction in percent disease ([4]; PLASVI, Table 13): xx (21-35% reduction in percent disease)

Compound: CC(C)CC=O [Isovaleraldehyde, isovaleraldehyde]
- Percent infection of Pseudoperonospora cubensis on cucumbers ([1]; isovaleraldehyde 50 ppm (sorbed to PergoPak M) alone, 5 days after application): 41%
- Percent infection of Pseudoperonospora cubensis on cucumbers ([1]; isovaleraldehyde 100 ppm (sorbed to PergoPak M) alone, 5 days after application): 34%
- Percent infection of Pseudoperonospora cubensis on cucumbers ([1]; isovaleraldehyde 100 ppm alone, 7 days after application): 41%
- Percent infection of Pseudoperonospora cubensis on cucumbers ([1]; isovaleraldehyde 500 ppm (sorbed to PergoPak M) alone, 5 days after application): 44%
- Percent infection of Pseudoperonospora cubensis on cucumbers ([1]; pure isovaleraldehyde 50 ppm alone, 6 days after application): 51%
- Percent infection of Pseudoperonospora cubensis on cucumbers ([1]; pure isovaleraldehyde 100 ppm alone, 6 days after application): 44%
- Reduction in percent disease PHYTIN ([2]; substance 500 ppm with mancozeb 25 ppm (Dithane DGNT), foliar spray, inoculated 2 to 3 hours after treatment): xxx (36-50% reduction in percent disease)
- % disease at 500 ppm of substance alone PHYTIN [2, 8]: 77%
- Reduction in % Disease ([5]; substance 100 ppm with mancozeb 200 ppm vs mancozeb alone, Table 9): xx (21-35% reduction in percent disease)
- Reduction in % Disease ([5]; substance 200 ppm with mancozeb 50 ppm vs mancozeb alone, cucumber): xxxx (>50% reduction in percent disease)
- Reduction in % Disease ([5]; substance 500 ppm with mancozeb 200 ppm vs mancozeb alone, Table 8): xx (21-35% reduction in percent disease)
- Reduction in % Disease ([5]; substance 1000 ppm with mancozeb 50 ppm vs mancozeb alone, cucumber): xxx (36-50% reduction in percent disease)
- % disease at 100 ppm of substance alone ([5]; substance alone 100 ppm, untreated check 92%, Table 9): 86%
- % disease at 500 ppm of substance alone ([5]; substance alone 500 ppm, untreated check 91%): 93%
- % disease at 1000 ppm of substance alone ([5]; substance alone 1000 ppm, untreated check 100%): 100%
- Reduction in percent disease PLASVI ([4]; substance 500 ppm with mancozeb 6.25 ppm (Dithane DGNT), foliar spray, inoculated 2 to 3 hours after treatment): xxx (36-50% reduction in percent disease)
- % disease at 500 ppm of substance alone PLASVI [4, 8]: 93%

Compound: CCC(C)(NC(=O)c1cc(Cl)c(C)c(Cl)c1)C(=O)CCl (stereo not drawn) [Zoxamide, zoxamide]
- Percent infection of Pseudoperonospora cubensis on cucumbers ([1]; zoxamide 1 ppm alone, 7 days after application): 28%
- Percent infection of Pseudoperonospora cubensis on cucumbers ([1]; zoxamide 5 ppm alone, 7 days after application): 16%
- Percent infection of Pseudoperonospora cubensis on cucumbers ([1]; zoxamide 25 ppm alone, 7 days after application): 16%
- effect of Formulation I on the effectiveness of fungicides, PHYTIN [2, 9]: xx (21-35% reduction in percent disease)
- effect of Formulation I on the effectiveness of fungicides, PSPECU [3]: x (key: x: 0-20% reduction in percent disease; xx: 21-35% reduction in percent disease; xxx: 36-50% reduction in percent disease; xxxx: >50% reduction in percent disease)

Compound: condensation product of urea and isovalderaldehyde [Compound B]
- % Disease (Phytophthora infestans; 300 ppm compound alone): 98%
- % Disease (Phytophthora infestans; [7]): 9%
- Disease control compared to Dithane alone (in words) (Phytophthora infestans): significantly improve disease control
- Reduction in percent disease [3]: x (key: x: 0-20% reduction in percent disease; xx: 21-35% reduction in percent disease; xxx: 36-50% reduction in percent disease; xxxx: >50% reduction in percent disease)
- Reduction in percent disease ([4]; PLASVI, Table 13): xx (21-35% reduction in percent disease)
- Reduction in percent disease ([4]; PLASVI, Table 15): xx (21-35% reduction in percent disease)

Compound: mancozeb
- Percent infection of Pseudoperonospora cubensis on cucumbers ([1]; mancozeb 10 ppm (Dithane 60 OS) alone, 5 days after application): 31%
- Percent infection of Pseudoperonospora cubensis on cucumbers ([1]; mancozeb 10 ppm (Dithane M45) alone, 6 days after application): 31%
- Percent infection of Pseudoperonospora cubensis on cucumbers ([1]; mancozeb 10 ppm (Dithane M45) alone, 7 days after application): 30%
- Percent infection of Pseudoperonospora cubensis on cucumbers ([1]; mancozeb 50 ppm (Dithane 60 OS) alone, 5 days after application): 25%
- Percent infection of Pseudoperonospora cubensis on cucumbers ([1]; mancozeb 50 ppm (Dithane M45) alone, 6 days after application): 21%
- Percent infection of Pseudoperonospora cubensis on cucumbers ([1]; mancozeb 50 ppm (Dithane M45) alone, 7 days after application): 11%
- Percent infection of Pseudoperonospora cubensis on cucumbers ([1]; mancozeb 100 ppm (Dithane 60 OS) alone, 5 days after application): 10%
- Percent infection of Pseudoperonospora cubensis on cucumbers ([1]; mancozeb 100 ppm (Dithane M45) alone, 6 days after application): 16%
- Percent infection of Pseudoperonospora cubensis on cucumbers ([1]; mancozeb 100 ppm (Dithane M45) alone, 7 days after application): 6%
- Reduction in percent disease PHYTIN [2, 10]: x (0-20% reduction in percent disease)
- Reduction in percent disease PHYTIN [2, 11]: xxx (36-50% reduction in percent disease)
- effect of Formulation I on the effectiveness of fungicides, PHYTIN [2, 9]: xx (21-35% reduction in percent disease)
- Percent disease ([6]; 1.6 ppm mancozeb): 71%
- Percent disease ([6]; 3.1 ppm mancozeb): 79%
- effect of Formulation I on the effectiveness of fungicides, PSPECU [3]: xx (key: x: 0-20% reduction in percent disease; xx: 21-35% reduction in percent disease; xxx: 36-50% reduction in percent disease; xxxx: >50% reduction in percent disease)
- Reduction in percent disease PLASVI [4, 10]: xx (21-35% reduction in percent disease)
- Reduction in percent disease PLASVI [4, 11]: xx (21-35% reduction in percent disease)
- effect of Formulation I on the effectiveness of fungicides, PLASVI ([4]; fungicide with Formulation I at 100 ppm, Table 20): xx (21-35% reduction in percent disease)
